Several values for one entry are separate records, joined by “and”; a condition that tells them apart may be missing. Equal entries are not always repeated. Where two headings read alike, the source gives them in different places. Where a SMILES comes first, the peptide text is derived from it. [ ]: non-standard residue; d: D form. Nle = CCCC[C@H](N)C(=O)O; Abu = CC[C@H](N)C(=O)O
Target: botox A (Clostridium botulinum, UniProt P0DPI1)
Type: biochemical
Set-up: Rate (initial rate of peptide hydrolysis) / Rate (initial rate of hydrolysis) In AcBSA: unit not given here

botox A, sequence (P0DPI1 2-448 limits assumed): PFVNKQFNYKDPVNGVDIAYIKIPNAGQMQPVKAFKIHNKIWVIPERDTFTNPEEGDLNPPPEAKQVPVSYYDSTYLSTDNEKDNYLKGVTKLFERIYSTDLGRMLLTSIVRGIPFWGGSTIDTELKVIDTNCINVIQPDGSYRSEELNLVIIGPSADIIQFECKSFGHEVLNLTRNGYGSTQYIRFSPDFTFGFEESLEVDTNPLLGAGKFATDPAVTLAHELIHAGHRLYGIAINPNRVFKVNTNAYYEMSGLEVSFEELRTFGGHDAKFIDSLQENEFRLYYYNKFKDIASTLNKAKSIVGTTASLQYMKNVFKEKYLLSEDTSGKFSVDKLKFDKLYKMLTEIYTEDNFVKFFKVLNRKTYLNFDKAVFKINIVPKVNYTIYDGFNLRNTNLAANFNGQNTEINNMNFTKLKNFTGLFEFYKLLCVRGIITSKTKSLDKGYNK

Ac-SNKTRIDEAQQRATKML-NH2 [N10Q, S N K T R I D E A Q Q R A T K M L]
hydrolysis by botox A, described in words: No hydrolysis

Ac-SNKTRIDEANQRATKAL-NH2 [M16A, S N K T R I D E A N Q R A T K A L]
Relative Rate (initial hydrolysis rates relative to peptide [1-17]): .38 | decrease in kcat compared with peptide [1-17]: ~50% | kcat (in 1/s): 25 ± 1 | Km (read-out: Km): 1900 ± 100 µM

Ac-SNRTRIDQANQRATRML-NH2 [compound 4, S N R T R I D Q A N Q R A T R M L]
Kcat In AcBSA: 68 s⁻¹ | Kcat In BSA: 64 s⁻¹ | Rate (initial rate of hydrolysis) In AcBSA: 19 | Rate (initial rate of hydrolysis) In BSA: 13 | Rate (initial rate of peptide hydrolysis): 12.6 ± 0.5 | Relative Rate: 1.7 | Km (read-out: Km In AcBSA): 470 µM | Km (read-out: Km In BSA): 760 µM

Ac-SNKTRIDEANNRATKML-NH2 [Q11N, S N K T R I D E A N N R A T K M L]
hydrolysis by botox A, described in words: slowed but did not eliminate hydrolysis | kcat (in 1/s): 19 ± 3 | Km (read-out: Km): 750 ± 80 µM

CC[C@H](NC(=O)[C@H](C)NC(=O)[C@H](CCCNC(=N)N)NC(=O)[C@H](CCC(N)=O)NC(=O)[C@H](CC(N)=O)NC(=O)[C@H](C)NC(=O)[C@H](CCC(=O)O)NC(=O)[C@H](CC(=O)O)NC(=O)[C@@H](NC(=O)[C@H](CCCNC(=N)N)NC(=O)[C@@H](NC(=O)[C@H](CCCCN)NC(=O)[C@H](CC(N)=O)NC(=O)[C@H](CO)NC(C)=O)[C@@H](C)O)[C@@H](C)CC)C(=O)N[C@@H](CCCCN)C(=O)N[C@@H](CCSC)C(=O)N[C@@H](CC(C)C)C(N)=O [T14B, S N K T R I D E A N Q R A B K M L] (Ac-SNKTRIDEANQRA[Abu]KML-NH2)
Relative Rate (initial hydrolysis rates relative to peptide [1-17]): 1.20 | hydrolysis by botox A, described in words: good substrate | kcat (in 1/s): 35 ± 2 | Km (read-out: Km): 1300 ± 100 µM

CC[C@H](NC(=O)[C@H](CCCNC(=N)N)NC(=O)[C@H](CC(N)=O)NC(=O)[C@H](CO)NC(C)=O)C(=O)N[C@@H](CCCNC(=N)N)C(=O)N[C@H](C(=O)N[C@@H](CC(=O)O)C(=O)N[C@@H](CCC(N)=O)C(=O)N[C@@H](C)C(=O)N[C@@H](CC(N)=O)C(=O)N[C@@H](CCC(N)=O)C(=O)N[C@@H](CCCNC(=N)N)C(=O)N[C@@H](C)C(=O)N[C@H](C(=O)N[C@@H](CCCNC(=N)N)C(=O)N[C@@H](CCSC)C(=O)N[C@@H](CC(C)C)C(N)=O)[C@@H](C)O)[C@@H](C)CC [peptide 7, S N R B R I D Q A N Q R A T R M L] (Ac-SNR[Abu]RIDQANQRATRML-NH2)
Kcat In AcBSA: 73 s⁻¹ | Rate (initial rate of hydrolysis) In AcBSA: 22 | Rate (initial rate of hydrolysis) In BSA: 14 | Rate (initial rate of peptide hydrolysis): 14.1 ± 0.7 | Relative Rate: 1.9 | Km (read-out: Km In AcBSA): 310 µM

Ac-SNKTRINEANQRATKML-NH2 [D7N, S N K T R I N E A N Q R A T K M L]
Relative Rate (initial hydrolysis rates relative to peptide [1-17]): 0.23 | kcat as percent of that for peptide [1-17]: about 10% | kcat (in 1/s): 5.0 ± 0.3 | Km (read-out: Km): 820 ± 60 µM

Ac-SNKTRIDEANQRASKML-NH2 [T14S, S N K T R I D E A N Q R A S K M L]
Km: 1200 µM | Relative Rate (initial hydrolysis rates relative to peptide [1-17]): 0.26 | hydrolysis by botox A, described in words: significantly lower hydrolysis rate | kcat: ~9.0 and 9.0 sec^-1 | Km (read-out: Km): ~1200 µM

Ac-TRIDEANQRATKM-NH2 [13-residue peptide]
reduction in rate of botox A-catalyzed hydrolysis: 43%

CC[C@H](NC(=O)[C@H](CCCNC(=N)N)NC(=O)[C@H](CCC(N)=O)NC(=O)[C@H](CC(N)=O)NC(=O)[C@H](C)NC(=O)[C@H](CCC(=O)O)NC(=O)[C@H](CC(=O)O)NC(=O)[C@@H](NC(=O)[C@H](CCCNC(=N)N)NC(=O)[C@@H](NC(=O)[C@H](CCCCN)NC(=O)[C@H](CC(N)=O)NC(=O)[C@H](CO)NC(C)=O)[C@@H](C)O)[C@@H](C)CC)C(=O)N[C@H](C(=O)N[C@@H](CCCCN)C(=O)N[C@@H](CCSC)C(=O)N[C@@H](CC(C)C)C(N)=O)[C@@H](C)O [A13B, S N K T R I D E A N Q R B T K M L] (Ac-SNKTRIDEANQR[Abu]TKML-NH2)
Relative Rate (initial hydrolysis rates relative to peptide [1-17]): .79 | kcat (in 1/s): 39 ± 2 | Km (read-out: Km): 1800 ± 100 µM

Ac-SNKTRIDEANQRATAML-NH2 [K15A, S N K T R I D E A N Q R A T A M L]
hydrolysis by botox A, described in words: significantly lower hydrolysis rate | kcat (in 1/s): ~8.0 | Km (read-out: Km): ~1000 µM

Ac-SNRTRIDEANQRATRML-NH2 [peptide 2, S N R T R I D E A N Q R A T R M L]
Kcat In AcBSA: 61 s⁻¹ | Kcat In BSA: 68 s⁻¹ | Rate (initial rate of hydrolysis) In AcBSA: 16 | Rate (initial rate of hydrolysis) In BSA: 11 | Rate (initial rate of peptide hydrolysis): 11.3 ± 0.5 | Relative Rate: 1.5 | hydrolysis by botox A, described in words: slightly faster than peptide 1 | Km (read-out: Km In AcBSA): 530 µM | Km (read-out: Km In BSA): 1400 µM

Ac-SNKTRIDEANQRATKML-NH2 [[1-17], S N K T R I D E A N Q R A T K M L]
Kcat In AcBSA: 41 s⁻¹ | Kcat In BSA: 47 s⁻¹ | Rate (initial rate of hydrolysis) In AcBSA: 10 | Rate (initial rate of hydrolysis) In BSA: 8 | Rate (initial rate of peptide hydrolysis): 7.6 ± 0.3 | Relative Rate: 1.0 | kcat (in 1/s): 47 ± 2 | Km (read-out: Km): 1700 ± 100 µM | Km (read-out: Km In AcBSA): 590 µM

CCCC[C@H](NC(=O)[C@H](CCCCN)NC(=O)[C@@H](NC(=O)[C@H](C)NC(=O)[C@H](CCCNC(=N)N)NC(=O)[C@H](CCC(N)=O)NC(=O)[C@H](CC(N)=O)NC(=O)[C@H](C)NC(=O)[C@H](CCC(=O)O)NC(=O)[C@H](CC(=O)O)NC(=O)[C@@H](NC(=O)[C@H](CCCNC(=N)N)NC(=O)[C@@H](NC(=O)[C@H](CCCCN)NC(=O)[C@H](CC(N)=O)NC(=O)[C@H](CO)NC(C)=O)[C@@H](C)O)[C@@H](C)CC)[C@@H](C)O)C(=O)N[C@@H](CC(C)C)C(N)=O [M16X, S N K T R I D E A N Q R A T K X L] (Ac-SNKTRIDEANQRATK[Nle]L-NH2)
hydrolysis by botox A, described in words: hydrolyzed somewhat faster than the native-sequence peptide | kcat (in 1/s): 30 ± 1 | Km (read-out: Km): 580 ± 20 µM

CC[C@H](NC(=O)[C@H](CC(=O)O)NC(=O)[C@@H](NC(=O)[C@H](CCCNC(=N)N)NC(=O)[C@H](CC)NC(=O)[C@H](CCCNC(=N)N)NC(=O)[C@H](CC(N)=O)NC(=O)[C@H](CO)NC(C)=O)[C@@H](C)CC)C(=O)N[C@@H](C)C(=O)N[C@@H](CC(N)=O)C(=O)N[C@@H](CCC(N)=O)C(=O)N[C@@H](CCCNC(=N)N)C(=O)N[C@@H](C)C(=O)N[C@H](C(=O)N[C@@H](CCCNC(=N)N)C(=O)N[C@@H](CCSC)C(=O)N[C@@H](CC(C)C)C(N)=O)[C@@H](C)O [peptide 6, S N R B R I D B A N Q R A T R M L] (Ac-SNR[Abu]RID[Abu]ANQRATRML-NH2)
Kcat In AcBSA: 86 s⁻¹ | Kcat In BSA: 89 s⁻¹ | Rate (initial rate of hydrolysis) In AcBSA: 25 | Rate (initial rate of hydrolysis) In BSA: 24 | Rate (initial rate of peptide hydrolysis): 25.3 ± 0.7 | Relative Rate: 3.3 | hydrolysis by botox A, described in words: more than three times faster | Km (read-out: Km In AcBSA): 400 µM | Km (read-out: Km In BSA): 520 µM

CC[C@H](NC(=O)[C@H](CC(=O)O)NC(=O)[C@@H](NC(=O)[C@H](CCCNC(=N)N)NC(=O)[C@@H](NC(=O)[C@H](CCCNC(=N)N)NC(=O)[C@H](CC(N)=O)NC(=O)[C@H](CO)NC(C)=O)[C@@H](C)O)[C@@H](C)CC)C(=O)N[C@@H](C)C(=O)N[C@@H](CC(N)=O)C(=O)N[C@@H](CCC(N)=O)C(=O)N[C@@H](CCCNC(=N)N)C(=O)N[C@@H](C)C(=O)N[C@H](C(=O)N[C@@H](CCCNC(=N)N)C(=O)N[C@@H](CCSC)C(=O)N[C@@H](CC(C)C)C(N)=O)[C@@H](C)O [peptide 5, S N R T R I D B A N Q R A T R M L] (Ac-SNRTRID[Abu]ANQRATRML-NH2)
Kcat In AcBSA: 70 s⁻¹ | Kcat In BSA: 69 s⁻¹ | Rate (initial rate of hydrolysis) In AcBSA: 21 | Rate (initial rate of hydrolysis) In BSA: 13 | Rate (initial rate of peptide hydrolysis): 12.9 ± 0.3 | Relative Rate: 1.7 | specific activity of type A toxin against the peptide: 21 µmol/min/mg | Km (read-out: Km In AcBSA): 330 µM | Km (read-out: Km In BSA): 740 µM

Ac-SNKTRIDEANQAATKML-NH2 [R12A, S N K T R I D E A N Q A A T K M L]
Relative Rate (initial hydrolysis rates relative to peptide [1-17]): < 0.02

CC[C@H](NC(=O)[C@H](CC(N)=O)NC(=O)[C@H](C)NC(=O)[C@H](CCC(=O)O)NC(=O)[C@H](CC(=O)O)NC(=O)[C@@H](NC(=O)[C@H](CCCNC(=N)N)NC(=O)[C@@H](NC(=O)[C@H](CCCCN)NC(=O)[C@H](CC(N)=O)NC(=O)[C@H](CO)NC(C)=O)[C@@H](C)O)[C@@H](C)CC)C(=O)N[C@@H](CCCNC(=N)N)C(=O)N[C@@H](C)C(=O)N[C@H](C(=O)N[C@@H](CCCCN)C(=O)N[C@@H](CCSC)C(=O)N[C@@H](CC(C)C)C(N)=O)[C@@H](C)O [Q11B, S N K T R I D E A N B R A T K M L] (Ac-SNKTRIDEAN[Abu]RATKML-NH2)
hydrolysis by botox A, described in words: slowed but did not eliminate hydrolysis | kcat (in 1/s): 7.7 ± 0.2 | Km (read-out: Km): 830 ± 50 µM

CC[C@H](NC(=O)[C@H](CCCNC(=N)N)NC(=O)[C@H](CC(N)=O)NC(=O)[C@H](CO)NC(C)=O)C(=O)N[C@@H](CCCNC(=N)N)C(=O)N[C@H](C(=O)N[C@@H](CC(=O)O)C(=O)N[C@@H](CCC(=O)O)C(=O)N[C@@H](C)C(=O)N[C@@H](CC(N)=O)C(=O)N[C@@H](CCC(N)=O)C(=O)N[C@@H](CCCNC(=N)N)C(=O)N[C@@H](C)C(=O)N[C@H](C(=O)N[C@@H](CCCNC(=N)N)C(=O)N[C@@H](CCSC)C(=O)N[C@@H](CC(C)C)C(N)=O)[C@@H](C)O)[C@@H](C)CC [peptide 3, S N R B R I D E A N Q R A T R M L] (Ac-SNR[Abu]RIDEANQRATRML-NH2)
Kcat In AcBSA: 58 s⁻¹ | Kcat In BSA: 75 s⁻¹ | Rate (initial rate of hydrolysis) In AcBSA: 18 | Rate (initial rate of hydrolysis) In BSA: 16 | Rate (initial rate of peptide hydrolysis): 15.8 ± 0.8 | Relative Rate: 2.1 | Km (read-out: Km In AcBSA): 320 µM | Km (read-out: Km In BSA): 910 µM

Ac-SNKTRIDQANQRATKML-NH2 [E8Q, S N K T R I D Q A N Q R A T K M L]
Relative Rate (initial hydrolysis rates relative to peptide [1-17]): 2.08 | decrease in Km compared with peptide [1-17]: about 50% | hydrolysis by botox A, described in words: doubling of the rate of hydrolysis | kcat (in 1/s): 51 ± 3 | Km (read-out: Km): 750 ± 40 µM

— patent US5965699A (priority 1996, dated 1999)
